The source made the active and inactive calls.
Legend:
Cytochrome P450 2D6 = Cytochrome P450 2D6 (Homo sapiens, UniProt P10635); assay: qHTS Assay for Inhibitors and Substrates of Cytochrome P450 2D6. [Related pubchem assays: 410 ]; format: ADME; conditions: read-out: Potency
Streptococcus = assay: Luminescence Microorganism-Based Dose Response Follow up to Identify Compounds Cytotoxic to Streptococcus. [Related pubchem assays: 1677 (Project Summary), 1915, 1914, 1902 (Retest at Dose), 1900 (Counter Screen), 1662 (Primary HTS)]; format: functional, organism-based
[1] = target: Dual specificity tyrosine-phosphorylation-regulated kinase 1A (Rattus norvegicus, UniProt Q63470); format: biochemical, Homo sapiens
[2] = target: T1, Mitochondrial peptide methionine sulfoxide reductase (Bos taurus, UniProt P54149); format: functional;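 note: absorbance read-out, biochemical high-throughput dose-response screen for MsrA inhibitors, confirmatory; recombinant bovine MsrA coupled to E. coli TrxB with NADPH and selenocystamine; potency is for inhibitors of MsrA activity on DMSO substrate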
T1 sequence (P54149 whole entry): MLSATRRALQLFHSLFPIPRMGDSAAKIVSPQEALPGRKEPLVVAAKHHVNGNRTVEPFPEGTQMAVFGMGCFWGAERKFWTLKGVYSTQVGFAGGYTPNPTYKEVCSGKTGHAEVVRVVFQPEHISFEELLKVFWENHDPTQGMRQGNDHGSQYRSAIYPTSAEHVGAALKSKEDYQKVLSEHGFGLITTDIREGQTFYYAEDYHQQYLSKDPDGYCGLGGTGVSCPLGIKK

Cytochrome P450 3A4 = Cytochrome P450 3A4 (Homo sapiens, UniProt P08684); conditions: read-out: Potency;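 note: confirmatory qHTS run detecting inhibitors and substrates of CYP3A4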
Cytochrome P450 3A4, sequence (P08684 whole entry): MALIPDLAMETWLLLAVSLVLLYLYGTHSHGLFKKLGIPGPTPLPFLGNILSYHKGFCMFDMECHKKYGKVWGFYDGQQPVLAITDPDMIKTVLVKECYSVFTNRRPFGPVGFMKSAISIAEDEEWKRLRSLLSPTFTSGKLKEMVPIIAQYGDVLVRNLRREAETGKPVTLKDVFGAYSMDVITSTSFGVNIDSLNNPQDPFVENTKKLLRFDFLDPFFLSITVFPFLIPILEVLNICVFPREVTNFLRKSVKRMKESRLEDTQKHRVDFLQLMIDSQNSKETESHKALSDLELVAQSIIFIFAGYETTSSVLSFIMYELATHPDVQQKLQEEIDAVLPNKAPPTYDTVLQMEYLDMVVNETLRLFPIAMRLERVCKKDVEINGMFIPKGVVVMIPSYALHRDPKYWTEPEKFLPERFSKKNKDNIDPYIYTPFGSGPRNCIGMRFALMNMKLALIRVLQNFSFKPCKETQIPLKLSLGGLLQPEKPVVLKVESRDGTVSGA

[3] = target: Luciferin 4-monooxygenase (Photinus pyralis, UniProt P08659); assay: Counter Screen for Luciferase-based Assay Positives. [Related pubchem assays: 620, 618, 411 ]
Luciferin 4-monooxygenase, sequence (P08659 whole entry): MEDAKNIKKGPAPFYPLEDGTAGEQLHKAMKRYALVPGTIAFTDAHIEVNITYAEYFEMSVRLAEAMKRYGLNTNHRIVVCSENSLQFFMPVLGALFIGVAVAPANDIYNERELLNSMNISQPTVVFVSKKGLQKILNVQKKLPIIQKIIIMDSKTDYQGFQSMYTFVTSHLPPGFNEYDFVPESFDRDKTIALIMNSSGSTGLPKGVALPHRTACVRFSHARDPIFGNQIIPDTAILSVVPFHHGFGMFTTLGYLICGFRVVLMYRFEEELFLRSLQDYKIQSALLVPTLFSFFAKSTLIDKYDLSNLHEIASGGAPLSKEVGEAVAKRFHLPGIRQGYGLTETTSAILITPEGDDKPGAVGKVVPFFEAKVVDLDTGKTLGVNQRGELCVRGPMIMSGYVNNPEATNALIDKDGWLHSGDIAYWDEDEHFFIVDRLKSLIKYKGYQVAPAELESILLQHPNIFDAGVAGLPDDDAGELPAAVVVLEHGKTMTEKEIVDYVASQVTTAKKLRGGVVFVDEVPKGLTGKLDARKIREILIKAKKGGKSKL

HT-1080 = assay: cytotoxicity in HT1080 fibrosarcoma cells, cell-based, fluorescence readout (AID 620); format: functional; conditions: Homo sapiens
[4] = target: Eukaryotic translation initiation factor 4H (Homo sapiens, UniProt Q15056); assay: human eIF4H binding inhibitors, primary screen, translation initiation inhibitor project, biochemical, uHTS, fluorescence polarization (AID 2012)
[5] = target: Polyadenylate-binding protein 1 (Homo sapiens, UniProt P11940); assay: PABP poly(A) RNA binding inhibitors, primary screen, biochemical, fluorescence polarization, uHTS (AID 2014)
[6] = target: T2, Sphingosine 1-phosphate receptor 4 (Homo sapiens, UniProt O95977); assay: Fluorescence dose response cell-based high throughput screening assay for antagonists of the Sphingosine 1-Phosphate Receptor 4 (S1P4). [Related pubchem assays: 1524 (Confirmation in triplicates.), 1510 (Primary screen.)]; format: functional
T2 sequence (O95977 whole entry): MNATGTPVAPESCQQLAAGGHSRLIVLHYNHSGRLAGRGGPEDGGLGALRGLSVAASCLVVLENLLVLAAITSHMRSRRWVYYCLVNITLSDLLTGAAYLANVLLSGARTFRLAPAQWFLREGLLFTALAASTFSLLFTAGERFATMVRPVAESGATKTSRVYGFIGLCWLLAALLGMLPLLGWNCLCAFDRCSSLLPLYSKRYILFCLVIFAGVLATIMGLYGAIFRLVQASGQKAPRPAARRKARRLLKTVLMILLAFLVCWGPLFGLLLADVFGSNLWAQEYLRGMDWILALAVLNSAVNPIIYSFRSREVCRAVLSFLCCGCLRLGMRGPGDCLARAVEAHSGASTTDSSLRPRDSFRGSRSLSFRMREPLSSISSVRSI

[7] = target: Sphingosine 1-phosphate receptor 1 (Homo sapiens, UniProt P21453); format: functional;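 note: Tango beta-arrestin reporter U2OS cells stimulated with S1P near its EC80; inhibitor potency meaning antagonism of receptor activation by the natural agonist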
Sphingosine 1-phosphate receptor 1, sequence (P21453 whole entry): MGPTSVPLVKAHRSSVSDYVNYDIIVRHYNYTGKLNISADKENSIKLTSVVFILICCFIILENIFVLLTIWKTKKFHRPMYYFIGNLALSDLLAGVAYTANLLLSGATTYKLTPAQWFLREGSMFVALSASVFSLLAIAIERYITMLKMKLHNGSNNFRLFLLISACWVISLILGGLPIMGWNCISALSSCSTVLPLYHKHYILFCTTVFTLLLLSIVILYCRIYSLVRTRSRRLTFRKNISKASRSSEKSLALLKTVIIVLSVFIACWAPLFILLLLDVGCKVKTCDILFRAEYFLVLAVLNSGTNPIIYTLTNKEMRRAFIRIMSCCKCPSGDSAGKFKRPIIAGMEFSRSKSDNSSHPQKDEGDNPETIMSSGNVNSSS

Exodeoxyribonuclease V = target: T3, Exodeoxyribonuclease V (Escherichia coli (strain K12), UniProt P04993+P07648+P08394); assay: E. coli RecBCD inhibitors, dose response, counter-screen for AddAB inhibitor project, absorbance, V66 E. coli, mutant T4 phage (AID 492957); format: functional, cell-based, Escherichia coli str. K-12 substr. MG1655
T3 sequence (P04993 whole entry): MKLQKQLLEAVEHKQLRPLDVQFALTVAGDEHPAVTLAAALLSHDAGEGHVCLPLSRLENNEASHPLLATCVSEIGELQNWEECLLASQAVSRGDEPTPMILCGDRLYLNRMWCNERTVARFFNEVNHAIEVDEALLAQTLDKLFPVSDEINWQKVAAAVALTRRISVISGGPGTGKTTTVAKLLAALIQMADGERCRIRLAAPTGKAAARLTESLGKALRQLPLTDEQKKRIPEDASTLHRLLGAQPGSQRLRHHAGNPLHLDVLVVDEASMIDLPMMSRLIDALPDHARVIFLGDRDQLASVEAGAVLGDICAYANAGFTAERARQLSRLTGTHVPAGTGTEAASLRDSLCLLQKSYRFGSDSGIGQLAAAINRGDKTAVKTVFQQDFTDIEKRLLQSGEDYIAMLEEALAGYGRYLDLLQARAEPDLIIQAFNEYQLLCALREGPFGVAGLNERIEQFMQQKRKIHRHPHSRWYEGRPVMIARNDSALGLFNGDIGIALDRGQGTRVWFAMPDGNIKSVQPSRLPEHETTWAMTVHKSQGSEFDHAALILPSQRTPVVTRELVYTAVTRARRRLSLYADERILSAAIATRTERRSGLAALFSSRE
T3 sequence (P07648 whole entry): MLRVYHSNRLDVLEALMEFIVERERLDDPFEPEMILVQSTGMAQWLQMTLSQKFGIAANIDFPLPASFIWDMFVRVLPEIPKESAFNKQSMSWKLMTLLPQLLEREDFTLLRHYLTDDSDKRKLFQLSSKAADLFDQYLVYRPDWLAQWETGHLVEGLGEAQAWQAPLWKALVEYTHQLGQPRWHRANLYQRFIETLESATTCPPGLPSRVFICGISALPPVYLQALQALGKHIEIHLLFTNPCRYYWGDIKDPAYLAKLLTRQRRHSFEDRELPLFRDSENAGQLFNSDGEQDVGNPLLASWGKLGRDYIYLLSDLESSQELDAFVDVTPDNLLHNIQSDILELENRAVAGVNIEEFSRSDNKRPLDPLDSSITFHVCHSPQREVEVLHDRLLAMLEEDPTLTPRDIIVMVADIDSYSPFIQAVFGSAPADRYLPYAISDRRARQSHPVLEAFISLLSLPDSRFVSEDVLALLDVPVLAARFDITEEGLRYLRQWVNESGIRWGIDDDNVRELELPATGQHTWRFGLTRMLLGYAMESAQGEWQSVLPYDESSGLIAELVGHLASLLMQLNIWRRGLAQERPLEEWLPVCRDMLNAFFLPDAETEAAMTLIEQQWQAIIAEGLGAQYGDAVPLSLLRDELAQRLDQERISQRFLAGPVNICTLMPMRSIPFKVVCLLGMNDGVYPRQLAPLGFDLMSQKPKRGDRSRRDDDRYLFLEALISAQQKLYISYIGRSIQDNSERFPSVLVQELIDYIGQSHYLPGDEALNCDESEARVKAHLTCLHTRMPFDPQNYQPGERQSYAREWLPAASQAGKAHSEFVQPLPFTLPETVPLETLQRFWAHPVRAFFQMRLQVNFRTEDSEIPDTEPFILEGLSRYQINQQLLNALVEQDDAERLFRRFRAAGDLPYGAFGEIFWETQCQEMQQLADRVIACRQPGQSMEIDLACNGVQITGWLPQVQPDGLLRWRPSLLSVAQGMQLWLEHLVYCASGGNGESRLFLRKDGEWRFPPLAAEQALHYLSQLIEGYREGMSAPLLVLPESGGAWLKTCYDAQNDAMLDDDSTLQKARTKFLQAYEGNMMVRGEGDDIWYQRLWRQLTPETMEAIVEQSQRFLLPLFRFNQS
T3 sequence (P08394 whole entry): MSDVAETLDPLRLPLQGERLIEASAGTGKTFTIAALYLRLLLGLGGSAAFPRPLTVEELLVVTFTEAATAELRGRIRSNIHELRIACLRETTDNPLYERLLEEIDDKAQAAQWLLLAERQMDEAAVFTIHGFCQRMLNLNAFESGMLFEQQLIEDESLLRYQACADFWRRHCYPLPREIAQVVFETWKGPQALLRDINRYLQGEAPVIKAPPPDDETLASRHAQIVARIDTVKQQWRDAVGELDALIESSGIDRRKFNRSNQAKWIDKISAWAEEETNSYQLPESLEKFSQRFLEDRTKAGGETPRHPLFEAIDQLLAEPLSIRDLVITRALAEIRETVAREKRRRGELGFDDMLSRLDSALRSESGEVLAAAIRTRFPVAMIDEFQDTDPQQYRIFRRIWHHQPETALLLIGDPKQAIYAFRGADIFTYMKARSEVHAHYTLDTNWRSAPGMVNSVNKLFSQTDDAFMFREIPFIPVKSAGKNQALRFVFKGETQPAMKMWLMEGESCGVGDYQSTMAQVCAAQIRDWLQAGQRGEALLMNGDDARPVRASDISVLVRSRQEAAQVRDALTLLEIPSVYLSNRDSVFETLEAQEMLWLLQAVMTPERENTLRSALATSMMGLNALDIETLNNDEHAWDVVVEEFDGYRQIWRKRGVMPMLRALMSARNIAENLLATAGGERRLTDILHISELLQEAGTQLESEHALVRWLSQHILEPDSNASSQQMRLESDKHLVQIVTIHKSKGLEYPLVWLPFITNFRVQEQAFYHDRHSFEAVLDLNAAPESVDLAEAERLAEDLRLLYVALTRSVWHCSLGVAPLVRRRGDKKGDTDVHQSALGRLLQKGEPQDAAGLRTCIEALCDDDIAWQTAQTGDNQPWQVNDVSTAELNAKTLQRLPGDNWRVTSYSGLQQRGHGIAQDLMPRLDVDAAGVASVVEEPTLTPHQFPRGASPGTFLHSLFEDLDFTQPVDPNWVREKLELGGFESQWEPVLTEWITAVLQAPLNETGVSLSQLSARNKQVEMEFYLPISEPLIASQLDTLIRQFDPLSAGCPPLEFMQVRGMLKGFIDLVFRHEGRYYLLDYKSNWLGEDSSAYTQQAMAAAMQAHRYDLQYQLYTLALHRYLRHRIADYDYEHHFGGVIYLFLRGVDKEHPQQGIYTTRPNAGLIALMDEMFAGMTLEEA

Keap1/Nrf2 = Keap1/Nrf2 (Homo sapiens, UniProt Q14145); assay: Keap1-Nrf2 protein-protein interaction inhibitors, dose response, biochemical, fluorescence polarization, cherry-picked samples (AID 588683)
Keap1/Nrf2, sequence (Q16236 whole entry): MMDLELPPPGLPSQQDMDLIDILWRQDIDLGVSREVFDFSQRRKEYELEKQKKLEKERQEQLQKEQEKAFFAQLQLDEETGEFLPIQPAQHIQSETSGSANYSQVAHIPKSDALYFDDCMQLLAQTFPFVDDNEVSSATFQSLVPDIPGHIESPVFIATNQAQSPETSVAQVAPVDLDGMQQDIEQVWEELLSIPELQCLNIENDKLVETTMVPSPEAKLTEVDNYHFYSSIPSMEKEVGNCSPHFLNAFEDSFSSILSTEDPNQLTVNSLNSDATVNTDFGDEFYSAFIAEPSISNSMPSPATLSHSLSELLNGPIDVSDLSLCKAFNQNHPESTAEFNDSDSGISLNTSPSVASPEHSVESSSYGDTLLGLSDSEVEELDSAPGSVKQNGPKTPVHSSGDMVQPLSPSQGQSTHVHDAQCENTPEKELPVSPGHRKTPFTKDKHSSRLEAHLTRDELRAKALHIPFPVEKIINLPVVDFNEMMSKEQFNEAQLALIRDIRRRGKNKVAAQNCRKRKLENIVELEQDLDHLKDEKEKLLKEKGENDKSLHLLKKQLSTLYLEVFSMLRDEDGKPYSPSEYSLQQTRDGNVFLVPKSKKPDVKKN
Keap1/Nrf2, sequence (Q14145 whole entry): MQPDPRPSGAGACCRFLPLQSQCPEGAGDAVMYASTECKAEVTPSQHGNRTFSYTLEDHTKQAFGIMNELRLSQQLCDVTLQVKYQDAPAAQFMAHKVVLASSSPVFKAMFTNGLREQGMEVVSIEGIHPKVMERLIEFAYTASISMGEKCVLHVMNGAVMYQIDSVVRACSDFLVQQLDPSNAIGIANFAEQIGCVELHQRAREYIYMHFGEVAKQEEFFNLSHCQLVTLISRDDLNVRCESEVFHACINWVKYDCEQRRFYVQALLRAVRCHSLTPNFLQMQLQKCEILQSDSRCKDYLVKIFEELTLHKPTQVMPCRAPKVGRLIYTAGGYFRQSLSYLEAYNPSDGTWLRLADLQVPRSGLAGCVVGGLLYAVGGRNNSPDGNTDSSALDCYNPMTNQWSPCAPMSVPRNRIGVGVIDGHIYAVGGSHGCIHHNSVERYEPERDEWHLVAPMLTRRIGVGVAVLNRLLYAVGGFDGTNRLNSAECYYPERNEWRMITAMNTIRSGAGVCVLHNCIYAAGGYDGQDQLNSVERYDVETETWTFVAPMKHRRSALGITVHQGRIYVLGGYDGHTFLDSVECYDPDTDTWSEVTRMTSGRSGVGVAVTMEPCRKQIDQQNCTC

Beta Lactamase [8] = target: T4, Beta Lactamase (Pseudomonas aeruginosa, UniProt Q932Y6); assay: beta-lactamase reporter inhibitor potency, dose response, artefact control for TLR9-MyD88 binding inhibitor project, BLA reporter cells, FRET fluorescence (AID 588341); format: cell-based;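 note: cell based assay in CHO-K1 cells stably expressing beta-lactamase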
T4 sequence (Q932Y6 whole entry): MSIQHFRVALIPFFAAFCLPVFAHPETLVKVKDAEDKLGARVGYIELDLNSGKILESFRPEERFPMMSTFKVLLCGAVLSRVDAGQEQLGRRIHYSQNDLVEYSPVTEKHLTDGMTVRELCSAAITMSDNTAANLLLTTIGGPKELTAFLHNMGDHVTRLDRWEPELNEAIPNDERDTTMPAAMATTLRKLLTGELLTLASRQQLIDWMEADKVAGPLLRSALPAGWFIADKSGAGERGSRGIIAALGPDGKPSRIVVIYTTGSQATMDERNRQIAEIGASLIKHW

Beta Lactamase [9] = target: T4, Beta Lactamase; assay: beta-lactamase reporter inhibitor potency, dose response, artefact control for NOD2-RIPK2 interaction inhibitor project, BLA reporter cells, FRET fluorescence (AID 651552); format: functional, cell-based
[10] = target: T5, Alkaline phosphatase, tissue-nonspecific isozyme (Homo sapiens, UniProt P05186)
T5 sequence (P05186 whole entry): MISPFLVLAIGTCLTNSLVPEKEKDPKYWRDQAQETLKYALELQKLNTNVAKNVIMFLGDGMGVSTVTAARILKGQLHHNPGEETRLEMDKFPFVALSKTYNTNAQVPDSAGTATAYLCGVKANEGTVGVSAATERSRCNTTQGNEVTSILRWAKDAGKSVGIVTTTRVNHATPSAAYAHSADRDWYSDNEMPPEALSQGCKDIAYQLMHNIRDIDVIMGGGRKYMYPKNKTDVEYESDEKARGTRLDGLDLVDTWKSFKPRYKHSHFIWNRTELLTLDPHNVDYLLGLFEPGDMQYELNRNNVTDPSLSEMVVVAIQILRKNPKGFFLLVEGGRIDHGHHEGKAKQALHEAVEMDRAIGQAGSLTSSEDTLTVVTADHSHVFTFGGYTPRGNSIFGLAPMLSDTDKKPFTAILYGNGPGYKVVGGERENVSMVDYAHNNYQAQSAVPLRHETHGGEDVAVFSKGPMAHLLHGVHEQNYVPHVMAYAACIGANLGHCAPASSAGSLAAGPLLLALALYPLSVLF

[11] = human group III sPLA2 inhibitors, dose response, biochemical, QFRET, IC50 (AID 743457);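 note: green fluorescence rise as the enzyme cleaves BODIPY PC-A2 in liposomes; potency for inhibition of the enzyme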
[12] = inhibitors of Bluetongue virus cytopathic effect, confirmation, arbovirus, BSR cells (AID 1250); format: functional;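 note: protection from viral cytopathic effect measured as cell viability by ATP luminescence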
[13] = target: FAD-linked sulfhydryl oxidase ALR (Homo sapiens, UniProt P55789); assay: inhibitors of human ALR sulfhydryl oxidase, dose response, biochemical, H2O2 detection, luminescence, cherry-pick (AID 493248)
FAD-linked sulfhydryl oxidase ALR, sequence (P55789 whole entry): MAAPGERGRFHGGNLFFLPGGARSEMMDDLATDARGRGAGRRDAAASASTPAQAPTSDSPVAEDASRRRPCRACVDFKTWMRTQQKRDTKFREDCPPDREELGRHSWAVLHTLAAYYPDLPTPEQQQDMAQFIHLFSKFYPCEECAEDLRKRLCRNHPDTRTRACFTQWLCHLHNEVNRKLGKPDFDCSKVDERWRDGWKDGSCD

Vero = assay: Vero E6 cell cytotoxicity, SAR follow-up, cytotoxicity control for West Nile virus antiviral project, synthesized analogs (AID 2244); format: functional; conditions: Chlorocebus sabaeus
[14] = Counterscreen for IDE inhibitors: Luminescence-based cell-based high throughput dose response assay to identify compounds that are cytotoxic to HEK cells. [Related pubchem assays: 434962 (Primary screen (IDE inhibitors in singlicate)), 449730 (Counterscreen (Cytotoxicity in triplicate)), 435028 (Confirmation (IDE inhibitors in triplicate)) …; format: functional; conditions: HEK293
Insulin-degrading enzyme = Insulin-degrading enzyme (Homo sapiens, UniProt P14735); assay: Dose Response: Fluorescence polarization-based cell-based high throughput dose response assay for inhibitors of insulin-degrading enzyme (IDE). [Related pubchem assays: 434962 (Primary screen (IDE inhibitors in singlicate)), 449730 (Counterscreen (Cytotoxicity in triplicate)), 435028 (Confirmation (IDE inhibitors in triplicate)), 434984 (Summary …; format: functional
Insulin-degrading enzyme, sequence (P14735 whole entry): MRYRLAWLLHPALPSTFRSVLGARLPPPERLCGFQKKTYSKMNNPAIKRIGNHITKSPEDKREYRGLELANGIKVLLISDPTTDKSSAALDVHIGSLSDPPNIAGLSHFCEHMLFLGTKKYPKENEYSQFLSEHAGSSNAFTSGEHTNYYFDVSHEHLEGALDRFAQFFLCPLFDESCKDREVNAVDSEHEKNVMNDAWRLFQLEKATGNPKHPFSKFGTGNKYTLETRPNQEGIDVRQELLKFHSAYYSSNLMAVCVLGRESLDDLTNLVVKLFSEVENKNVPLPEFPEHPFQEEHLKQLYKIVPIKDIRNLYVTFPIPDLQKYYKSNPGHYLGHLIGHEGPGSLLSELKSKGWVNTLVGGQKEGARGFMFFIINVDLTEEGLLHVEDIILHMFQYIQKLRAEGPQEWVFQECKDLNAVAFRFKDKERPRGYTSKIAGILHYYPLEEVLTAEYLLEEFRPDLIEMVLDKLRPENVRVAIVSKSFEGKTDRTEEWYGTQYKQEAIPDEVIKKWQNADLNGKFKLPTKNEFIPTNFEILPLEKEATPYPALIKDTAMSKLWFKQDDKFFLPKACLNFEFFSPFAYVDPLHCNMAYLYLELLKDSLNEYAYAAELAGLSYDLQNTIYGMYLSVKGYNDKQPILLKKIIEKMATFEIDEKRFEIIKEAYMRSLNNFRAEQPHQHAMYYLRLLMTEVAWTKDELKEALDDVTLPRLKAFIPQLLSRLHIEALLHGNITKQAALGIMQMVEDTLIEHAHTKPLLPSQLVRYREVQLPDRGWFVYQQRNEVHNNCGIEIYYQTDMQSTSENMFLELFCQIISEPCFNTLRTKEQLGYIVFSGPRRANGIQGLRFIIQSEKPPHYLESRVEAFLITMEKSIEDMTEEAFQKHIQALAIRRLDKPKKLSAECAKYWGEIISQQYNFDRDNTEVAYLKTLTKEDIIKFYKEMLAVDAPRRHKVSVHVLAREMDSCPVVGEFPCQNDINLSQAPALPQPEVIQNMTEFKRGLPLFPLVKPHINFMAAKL

Cytochrome P450 2D6, sequence (P10635 whole entry): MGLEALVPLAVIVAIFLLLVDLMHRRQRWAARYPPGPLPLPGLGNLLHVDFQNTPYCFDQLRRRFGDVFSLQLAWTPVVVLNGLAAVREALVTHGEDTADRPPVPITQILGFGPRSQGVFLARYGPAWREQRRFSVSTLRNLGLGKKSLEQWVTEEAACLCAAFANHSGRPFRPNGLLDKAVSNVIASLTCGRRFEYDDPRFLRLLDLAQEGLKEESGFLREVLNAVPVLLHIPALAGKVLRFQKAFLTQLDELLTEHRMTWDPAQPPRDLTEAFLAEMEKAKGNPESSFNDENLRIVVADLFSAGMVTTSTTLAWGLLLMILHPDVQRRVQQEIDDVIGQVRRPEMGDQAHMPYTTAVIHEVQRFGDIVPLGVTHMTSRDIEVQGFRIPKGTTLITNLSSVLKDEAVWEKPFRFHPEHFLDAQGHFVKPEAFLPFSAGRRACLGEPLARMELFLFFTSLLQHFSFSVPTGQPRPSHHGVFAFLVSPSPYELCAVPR

CC[C@@H]1[C@H]2CCCCN3[C@@H]2[C@@H](C[C@H]3[C@@H]2C[C@H](C)C(=O)O2)[C@@H]2[C@H]1OC(=O)[C@H]2C
AC50 (Cytochrome P450 2D6): 10 µM (inconclusive)

O=C(c1ccc(OC(F)(F)F)cc1)n1c2ccccc2c2ccccc21
EC50 (Streptococcus): > 500 µM (not active)

COc1cc2c(cc1O)CC1c3c(cc(O)c(OC)c3-2)CCN1C (configuration not stated)
AC50 [1]: 3.83 µM (active) | IC50 [2]: 53.9 µM (inactive) | AC50 (Cytochrome P450 3A4): 25.1 µM (inconclusive)

COc1ccc(-c2cc(C(=O)O)c(C)o2)cc1OC
EC50 [3]: 4.68 µM (active) | EC50 (HT-1080): > 50 µM (not active)

CCCCn1cc[n+](-c2nc3c([N+](=O)[O-])cccc3n2C)c1
IC50 [4]: > 100 µM (inactive) | IC50 [5]: 4.55 µM (active)

C=CCn1c(Sc2ncc([N+](=O)[O-])s2)n[nH]c1=O
IC50 [6]: 2.63 µM (active) | IC50 [7]: 18.1 µM (not active) | IC50 (Exodeoxyribonuclease V): 77.2 µM (inactive) | AC50 (Keap1/Nrf2): > 52 µM (inactive) | IC50 (Beta Lactamase [8]): > 49.8 µM (inactive) | IC50 (Beta Lactamase [9]): 42 µM (inactive)

Cc1ccc(NC(S)=NNC(=O)c2nn(C)cc2Cl)cc1
EC50 [10]: 61 µM (not active) | IC50 [11]: > 122 µM (inactive)

CCN(CC)c1ccc(NC(=O)c2c(OC)cccc2OC)c(C)c1
IC50 [12]: 23.5 µM (active) | AC50 [13]: 0.84 µM (active)

COc1ccc(-c2csc(NC(=O)c3ccccc3Cl)n2)cc1
CC50 (Vero): > 40 µM (active)

O=C(N/N=C/c1cccnc1)c1cccc(NC(=O)c2cccc(Br)c2)c1
IC50 [14]: 53.6 µM (not active) | IC50 (Insulin-degrading enzyme): 21.9 µM (not active)
